Source: PubChem BioAssay AID330 (DTP/NCI, 2004)
Values joined by “and” are separate entries in the source; they are usually repeats but may differ in a detail not shown here. Identical values can stand only once. Inconclusive results and toxic doses are left out. Rule for the calls: active = survival T/C of 150% or more; inactive = T/C below 125% in these data. Square brackets hold non-standard residues; d marks the D form. Peptide text beside a SMILES is read from it. Nle = CCCC[CH](N)C(=O)O

Test system: P388 leukemia ip, CD2F1 mice, survival T/C
Experiment: NCI In Vivo Anticancer Drug Screen. Data for tumor model P388 Leukemia (intraperitoneal) in CD2F1 (CDF1) mice
Settings: endpoint: median survival time, higher = longer survival
Summary of the method: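 Mice carrying the transplanted tumor received test compound or vehicle. Survival was recorded in each group, and the value is the treated-group measurement divided by that of the vehicle-treated control group.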

[1] = dose: 50.0 mg/kg/injection, schedule: Q01DX005 (ip), vehicle: saline
[2] = dose: 100.0 mg/kg/injection, schedule: Q01DX005 (ip), vehicle: saline
[3] = dose: 200.0 mg/kg/injection, schedule: Q01DX005 (ip), vehicle: saline
[4] = dose: 100.0 mg/kg/injection, schedule: Q04DX003 (ip), vehicle: saline
[5] = dose: 200.0 mg/kg/injection, schedule: Q04DX003 (ip), vehicle: saline
[6] = dose: 60.0 mg/kg/injection, schedule: Q01DX005 (ip), vehicle: saline with Tween-80
[7] = dose: 120.0 mg/kg/injection, schedule: Q01DX005 (ip), vehicle: saline with Tween-80
[8] = dose: 240.0 mg/kg/injection, schedule: Q01DX005 (ip), vehicle: saline with Tween-80
[9] = dose: 100.0 mg/kg/injection, schedule: Q01DX001 (ip), vehicle: saline
[10] = dose: 200.0 mg/kg/injection, schedule: Q01DX001 (ip), vehicle: saline
[11] = dose: 400.0 mg/kg/injection, schedule: Q01DX001 (ip), vehicle: saline
[12] = dose: 60.0 mg/kg/injection, schedule: Q01DX005 (ip), vehicle: Klucel (hydroxypropylcellulose) (HPC)
[13] = dose: 120.0 mg/kg/injection, schedule: Q01DX005 (ip), vehicle: Klucel (hydroxypropylcellulose) (HPC)
[14] = dose: 240.0 mg/kg/injection, schedule: Q01DX005 (ip), vehicle: Klucel (hydroxypropylcellulose) (HPC)
[15] = dose: 12.5 mg/kg/injection, schedule: Q01DX009 (ip), vehicle: saline with Tween-80
[16] = dose: 25.0 mg/kg/injection, schedule: Q01DX009 (ip), vehicle: saline with Tween-80
[17] = dose: 50.0 mg/kg/injection, schedule: Q01DX009 (ip), vehicle: saline with Tween-80
[18] = dose: 100.0 mg/kg/injection, schedule: Q01DX009 (ip), vehicle: saline with Tween-80
[19] = dose: 200.0 mg/kg/injection, schedule: Q01DX009 (ip), vehicle: saline with Tween-80

Measured: T/C

CN(C)c1ccc2c(=O)cc[nH]c2c1
inactive: [1] 96 % of control | [2] 100 % of control | [3] 100 % of control

OC(C1=CCCCC1)(c1ccccc1)c1ccccc1
inactive: dose: 25.0 mg/kg/injection, schedule: Q01DX005 (ip), vehicle: Klucel (hydroxypropylcellulose) (HPC) 98 % of control | dose: 50.0 mg/kg/injection, schedule: Q01DX005 (ip), vehicle: Klucel (hydroxypropylcellulose) (HPC) 100 % of control | dose: 100.0 mg/kg/injection, schedule: Q01DX005 (ip), vehicle: Klucel (hydroxypropylcellulose) (HPC) 90 % of control | dose: 200.0 mg/kg/injection, schedule: Q01DX005 (ip), vehicle: Klucel (hydroxypropylcellulose) (HPC) 91 % of control

CCCC(O)CN (stereo unspecified)
inactive: [4] 103 % of control | [5] 107 % of control

CC(=O)SCC1C(=O)CC(C)(C)CC1=O
inactive: dose: 200.0 mg/kg/injection, schedule: Q04DX003 (ip), vehicle: Klucel (hydroxypropylcellulose) (HPC) 89 % of control

CC(Sc1ncnc2[nH]ncc12)C(N)=O (stereo unspecified)
inactive: [6] 97 % of control | [7] 97 % of control | [8] 118 % of control

O=C1NC(=O)C2=C1CCC2
inactive: dose: 3.13 mg/kg/injection, schedule: Q01DX009 (ip), vehicle: distilled water + Tween-80 98 % of control | dose: 6.25 mg/kg/injection, schedule: Q01DX009 (ip), vehicle: distilled water + Tween-80 104 % of control | dose: 12.5 mg/kg/injection, schedule: Q01DX009 (ip), vehicle: distilled water + Tween-80 114 % of control

CCO/C(C)=[N+](/[O-])S(=O)(=O)c1c(C)cc(C)cc1C
inactive: [9] 103 % of control | [10] 100 % of control | [11] 104 % of control

CC1(C)COC(=O)/C1=C1\SC(=S)NC1=O
inactive: [4] 103 % of control | [5] 92 % of control

O=C(C=C(C(F)(F)F)C(F)(F)F)c1ccc(F)cc1
inactive: dose: 6.25 mg/kg/injection, schedule: Q04DX003 (ip), vehicle: other 109 % of control | dose: 12.5 mg/kg/injection, schedule: Q04DX003 (ip), vehicle: other 104 % of control | dose: 16.5 mg/kg/injection, schedule: Q01DX009 (ip), vehicle: saline + alcohol 110 % of control | dose: 25.0 mg/kg/injection, schedule: Q01DX009 (ip), vehicle: saline + alcohol 106 % of control | dose: 25.0 mg/kg/injection, schedule: Q04DX003 (ip), vehicle: other 118 % of control | dose: 37.5 mg/kg/injection, schedule: Q01DX009 (ip), vehicle: saline + alcohol 109 % of control

CC1=CC(C)CN(C)C1 (stereo unspecified)
inactive: dose: 6.25 mg/kg/injection, schedule: Q01DX005 (ip), vehicle: saline 102 % of control | dose: 12.5 mg/kg/injection, schedule: Q01DX005 (ip), vehicle: saline 100 % of control | dose: 25.0 mg/kg/injection, schedule: Q01DX005 (ip), vehicle: saline 105 % of control

NC(CSCc1ccccc1)P(=O)(O)O (stereo unspecified)
inactive: [12] 105 % of control | [13] 98 % of control | [14] 91 % of control

CCCCC(N)C(=O)NC(CCSC)C(N)=O (stereo unspecified) (H-[Nle]-Met-NH2; configuration not given here)
inactive: [1] 100 % of control | [2] 105 % of control | [3] 100 % of control

Cc1c(C(=N)C(C#N)C#N)c(=N)oc2c1ccc1ccccc12
inactive: dose: 6.25 mg/kg/injection, schedule: Q01DX009 (ip), vehicle: saline with Tween-80 94 % of control and 97 % of control | [15] 86 % of control and 96 % of control | [16] 115 % of control and 87 % of control and 95 % of control | [17] 123 % of control and 94 % of control (2×) | [18] 100 % of control and 92 % of control | [19] 116 % of control

COc1cc(/C=C/c2nnc3c4ccccc4cnn23)cc(OC)c1OC
inactive: [15] 99 % of control | [16] 100 % of control | [17] 101 % of control and 91 % of control | [18] 93 % of control | [19] 94 % of control

C[Si](C)(C)c1ccccn1
inactive: [6] 108 % of control | [7] 103 % of control | [8] 113 % of control

Cc1ccc(Oc2ccc([N+](=O)[O-])c3[nH]c4ccccc4c(=O)c23)cc1
inactive: [17] 94 % of control | [18] 111 % of control | [19] 113 % of control

CCC(=O)N(C)C(C)C(=O)OC1CC(=O)N(C)c2cc(cc(OC)c2Cl)CC(CBr)=C/C=C/C(OC)C2(O)CC(OC(=O)N2)C(C)C2OC12C (stereo unspecified)
active: dose: 32.0 micrograms/kg/injection, schedule: Q01DX009 (ip), vehicle: saline + alcohol 152 % of control | dose: 64.0 micrograms/kg/injection, schedule: Q01DX009 (ip), vehicle: saline + alcohol 150 % of control

C=C1C(C#N)=C(SC)SC(=S)N1CC
inactive: dose: 50.0 mg/kg/injection, schedule: Q01DX001 (ip), vehicle: saline with Tween-80 95 % of control | dose: 100.0 mg/kg/injection, schedule: Q01DX001 (ip), vehicle: saline with Tween-80 92 % of control | dose: 200.0 mg/kg/injection, schedule: Q01DX001 (ip), vehicle: saline with Tween-80 93 % of control | dose: 400.0 mg/kg/injection, schedule: Q01DX001 (ip), vehicle: saline with Tween-80 95 % of control

CSc1nc(NC2OC(CO)C(O)C(O)C2O)c(C=O)c(=O)n1C (stereo unspecified)
inactive: [6] 100 % of control | [7] 92 % of control | [8] 91 % of control

COC(=O)C(N)C(C)O (stereo unspecified)
inactive: dose: 12.5 mg/kg/injection, schedule: Q01DX009 (ip), vehicle: water 97 % of control | dose: 25.0 mg/kg/injection, schedule: Q01DX009 (ip), vehicle: water 101 % of control | dose: 50.0 mg/kg/injection, schedule: Q01DX009 (ip), vehicle: water 89 % of control | dose: 100.0 mg/kg/injection, schedule: Q01DX009 (ip), vehicle: water 102 % of control | dose: 200.0 mg/kg/injection, schedule: Q01DX009 (ip), vehicle: water 102 % of control

CC(c1ccccc1)C1CCN(C)CC1 (stereo unspecified)
inactive: dose: 12.5 mg/kg/injection, schedule: Q04DX002 (ip), vehicle: saline 99 % of control | dose: 25.0 mg/kg/injection, schedule: Q04DX002 (ip), vehicle: saline 100 % of control

CCCC(=O)ON(C)C(=O)CCC
inactive: dose: 100.0 mg/kg/injection, schedule: Q01DX005 (ip), vehicle: saline with Tween-80 96 % of control | dose: 200.0 mg/kg/injection, schedule: Q01DX005 (ip), vehicle: saline with Tween-80 105 % of control | dose: 400.0 mg/kg/injection, schedule: Q01DX005 (ip), vehicle: saline with Tween-80 117 % of control

CCOC1(OCC)CC(c2ccccc2)c2cnn(-c3ccccc3)c2O1 (stereo unspecified)
inactive: [12] 92 % of control | [13] 93 % of control | [14] 87 % of control

CC1=CC2OC3CC(OC(=O)/C=C/C=C/C(O)C(C)O)C(C)(C2(C)CC1)C31CO1 (stereo unspecified)
inactive: dose: 0.16 mg/kg/injection, schedule: Q01DX009 (ip), vehicle: saline + alcohol 109 % of control | dose: 0.31 mg/kg/injection, schedule: Q01DX009 (ip), vehicle: saline + alcohol 113 % of control | dose: 0.62 mg/kg/injection, schedule: Q01DX009 (ip), vehicle: saline + alcohol 109 % of control | dose: 1.25 mg/kg/injection, schedule: Q01DX009 (ip), vehicle: saline + alcohol 109 % of control | dose: 2.5 mg/kg/injection, schedule: Q01DX009 (ip), vehicle: saline + alcohol 120 % of control | dose: 5.0 mg/kg/injection, schedule: Q01DX009 (ip), vehicle: saline + alcohol 123 % of control

[Cl][Sn]([Cl])([c]1ccccc1)[c]1ccccc1.c1ccc(-c2nnc(-c3ccccn3)nc2-c2ccccc2)cc1
inactive: dose: 0.79 mg/kg/injection, schedule: Q01DX005 (ip), vehicle: Klucel (hydroxypropylcellulose) (HPC) 101 % of control and 120 % of control | dose: 1.56 mg/kg/injection, schedule: Q01DX005 (ip), vehicle: Klucel (hydroxypropylcellulose) (HPC) 120 % of control | dose: 3.12 mg/kg/injection, schedule: Q01DX005 (ip), vehicle: Klucel (hydroxypropylcellulose) (HPC) 123 % of control

CCO/C=N/NC(=O)CNC(=O)C=[N+]=[N-]
active: dose: 180.0 mg/kg/injection, schedule: Q01DX009 (ip), vehicle: water 172 % of control

CC1(C)OC2C3COC(O3)C(O)C2O1 (stereo unspecified)
inactive: [9] 107 % of control | [10] 98 % of control | [11] 112 % of control

Cc1oc2ccccc2c(=O)c1Cn1cnc2ccc([N+](=O)[O-])cc21
inactive: [6] 102 % of control | [7] 93 % of control | [8] 91 % of control
